The values that follow are results of earlier work, collected in patent US20200372978A1 (priority 2019, published 2020).

The structures appear in SMILES notation.

This data set has as its target T1, PPARγ (Homo sapiens, UniProt P37231).
T1 sequence (P37231 1-505): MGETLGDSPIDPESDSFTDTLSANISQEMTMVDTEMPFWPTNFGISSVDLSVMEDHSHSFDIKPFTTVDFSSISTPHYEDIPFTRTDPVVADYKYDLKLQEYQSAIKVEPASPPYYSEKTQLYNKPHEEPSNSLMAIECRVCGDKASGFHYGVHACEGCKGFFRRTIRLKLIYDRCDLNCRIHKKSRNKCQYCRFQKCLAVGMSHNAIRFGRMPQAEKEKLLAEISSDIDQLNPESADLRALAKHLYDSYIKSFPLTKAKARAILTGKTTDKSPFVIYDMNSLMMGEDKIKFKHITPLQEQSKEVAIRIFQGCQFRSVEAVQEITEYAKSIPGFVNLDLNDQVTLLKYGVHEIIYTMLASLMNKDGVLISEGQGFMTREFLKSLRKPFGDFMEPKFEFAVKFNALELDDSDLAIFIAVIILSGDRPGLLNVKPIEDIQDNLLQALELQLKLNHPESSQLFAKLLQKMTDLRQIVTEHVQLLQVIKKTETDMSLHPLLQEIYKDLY
As to conditions: of the maximum effect of ROSI.

As to `CC(C)COC(=O)c1ccccc1C(=O)OCC(C)C` [DiBP], the maximum effect is listed as 25%.
